One data set relates to Liver microsomes. Put plainly: Clearance in human liver microsomes. It is filed as ADME, Microsome. Background: Liver microsomes are vesicles of endoplasmic reticulum, rich in cytochrome P450 enzymes.
Data set [1] can be described thus: Cmax in rat at 10 mg/kg, po. The format is ADME, organism-based. Also on record: dose 10 mg/kg, route oral. The note with it: in vivo.
Data set [2] can be described thus: Plasma concentration in rat at 10 mg/kg, po after 4 hrs. It is filed as ADME, organism-based. Also on record: dose 10 mg/kg, route oral.
A further data set relates to Rattus norvegicus. Put plainly: AUC (0 to 4 hrs) in rat at 10 mg/kg, po. The format is ADME, organism-based, Plasma. Also on record: time < 4 hr, dose 10 mg/kg, route oral. The note with it: in vivo.

The Cmax is the peak of the concentration-time curve. What is called AUC is the area under the concentration-time curve, a measure of exposure.

Molecules are shown by their SMILES.

In the data set on Liver microsomes, `COC(=O)NC(=O)c1ccc(C)c(Nc2ncnn3cc(C(=O)c4ccccc4)c(C)c23)c1` showed a CL of 0.16 nmol/min/mg.

`Cc1ccc(C(=O)NC2CC2)cc1Nc1ncnn2cc(C(=O)c3ccccc3)c(C)c12`: the CL in the data set with Liver microsomes was 0.08 nmol/min/mg. The compound further yielded a Cmax in data set [1] of 752 ng/mL. In data set [2], this compound showed a concentration at 4 h of 550 ng/mL. The compound also came in with an AUC in the data set on Rattus norvegicus of 2300 ng·h/mL.
